Our source for the Assembly, solubility and EC50 values is ChEMBL document CHEMBL1125900, “Biologically active taxol analogues with deleted A-ring side chain substituents and variable C-2' configurations” (J Med Chem, 1991).

Values after ≈ are worked out from the molar mass of the structure shown.

Series [1] is filed under the species Homo sapiens. Nature of the series: Effect on microtubule protein assembly was determined in vitro. It counts as functional.
Series [2] in a line: Solubility in H2O was measured. It is filed as physicochemical. The conditions noted are these: water.
The test system of series [3] is J774.2. Nature of the series: Concentration that inhibits cell division by 50% after 72 hr for J774.2 cells was determined. It counts as functional. The settings on record: Mus musculus, J774.2, 72 h; read-out: ED50 (the source's name).
For series [4], the system named is CHO. Nature of the series: Concentration that inhibits cell division by 50% after 72 hr for CHO cells was determined. The conditions noted are these: Cricetulus griseus, read-out: ED50 (the source's name). It is filed as functional.

Molecule `Nc1nc2c(ncn2[C@@H]2O[C@H](COP(=O)(O)OP(=O)(O)OP(=O)(O)O)[C@@H](O)[C@H]2O)c(=O)[nH]1` [GUANOSINE TRIPHOSPHATE] gave an Assembly in series [1] of 70%.

For the molecule `CC(=O)O[C@H]1C(=O)[C@@]2(C)[C@H]([C@H](OC(=O)c3ccccc3)[C@]3(O)C[C@H](OC(=O)[C@H](O)CNC(=O)c4ccccc4)C(C)=C1C3(C)C)[C@]1(OC(C)=O)CO[C@@H]1C[C@@H]2O`, in series [2], the concentration in solution (solubility) was 615 µM (≈ 478 µg/mL). In addition, the EC50 in series [3] came out at 20 µM; in series [4], 32 µM. Further, the Assembly in series [1] stood at 60%.

In the case of `CC(=O)O[C@H]1C(=O)[C@@]2(C)[C@H]([C@H](OC(=O)c3ccccc3)[C@]3(O)C[C@H](OC(=O)[C@@H](C)O)C(C)=C1C3(C)C)[C@]1(OC(C)=O)CO[C@@H]1C[C@@H]2O`, the solubility in series [2] is 820 µM (≈ 540 µg/mL). The EC50 is 27 µM in series [3] and more than 45 µM in series [4]. For the same molecule, in series [1], the Assembly came to 31%.

In the case of `CC(=O)O[C@H]1C(=O)[C@@]2(C)[C@H]([C@H](OC(=O)c3ccccc3)[C@]3(O)C[C@H](OC(=O)[C@H](O)[C@@H](NC(=O)c4ccccc4)c4ccccc4)C(C)=C1C3(C)C)[C@]1(OC(C)=O)CO[C@@H]1C[C@@H]2O` [PACLITAXEL], the values for the EC50 in series [3] and in series [4] were 0.09 µM and 0.35 µM, respectively. Besides, the Assembly in series [1] was determined as 100%.

`CC(=O)O[C@H]1C(=O)[C@@]2(C)[C@H]([C@H](OC(=O)c3ccccc3)[C@]3(O)C[C@H](OC(=O)[C@H](C)O)C(C)=C1C3(C)C)[C@]1(OC(C)=O)CO[C@@H]1C[C@@H]2O`: the solubility in series [2] is 1000 µM (≈ 659 µg/mL). For the same molecule, the values for the EC50 in series [3] and in series [4] were 29 µM and more than 45 µM, respectively. Also, the Assembly in series [1] is listed as 38%.

`CC(=O)O[C@H]1C(=O)[C@@]2(C)[C@H]([C@H](OC(=O)c3ccccc3)[C@]3(O)C[C@H](OC(=O)[C@@H](O)Cc4ccccc4)C(C)=C1C3(C)C)[C@]1(OC(C)=O)CO[C@@H]1C[C@@H]2O` displayed a solubility in series [2] of 160 µM (≈ 118 µg/mL). In addition, the EC50 came to 3.4 µM in series [3] and 5.3 µM in series [4]. In series [1], this molecule registered an Assembly of 69%.

In series [2], `CC(=O)O[C@H]1C(=O)[C@@]2(C)[C@H]([C@H](OC(=O)c3ccccc3)[C@]3(O)C[C@H](OC(=O)[C@@H](O)CNC(=O)c4ccccc4)C(C)=C1C3(C)C)[C@]1(OC(C)=O)CO[C@@H]1C[C@@H]2O` yielded a solubility of 565 µM (≈ 439 µg/mL).

`CC(=O)O[C@H]1C(=O)[C@@]2(C)[C@H]([C@H](OC(=O)c3ccccc3)[C@]3(O)C[C@H](OC(=O)[C@H](O)Cc4ccccc4)C(C)=C1C3(C)C)[C@]1(OC(C)=O)CO[C@@H]1C[C@@H]2O`: the solubility in series [2] worked out at 175 µM (≈ 129 µg/mL). In addition, the EC50 worked out at 3.5 µM in series [3] and 5.5 µM in series [4]. Further, the Assembly in series [1] is recorded as 68%.
